Results: US8575215B2, “Treatment of neurodegenerative and cardiovascular disorders” (priority 2001, dated 2013)
pIC50: −log10 of the molar value.

Columns and labels:
[1] = test system: cerebellar granule neurons (CGN) culture; test: NO-induced cell death on cultured neurons; type: cell-based; details: Neuron, cell death induced by nitric oxide, concentration-dependent, read-out: IC50 for blocking nitric oxide-induced neuron cell death
Experimental: Efficacy of caffeic acid phenethyl ester on treating neurodegenerative disorders as well as other disorders related to NO-induced cell death was assessed by testing its ability to block NO-induced cell death on cultured neurons according to a method described in Du, et al., Proc Natl Acad Sci, 2001, 98, 14669-14674.

[2] = test system: cerebellar granule neurons (CGN) culture; test: 6-hydroxydopamine-induced neurotoxicity on cultured neurons; type: cell-based; details: 6-hydroxydopamine used to induce neurotoxicity
[3] = test system: TH-positive neurons in the substantia nigra pars compacta (SNpc); test: MPTP mouse model, stereological count of TH-positive neurons in SNpc; type: in vivo, mice
Experimental: Caffeic acid phenethyl ester was evaluated for its efficacy in treating a neurodegenerative disorder in mice. Three groups of eight-week-old male C57B1/6 mice (Taconic Farms Inc., Germantown, N.Y.), 5-7 per group, were used. A group of mice were administered for 9 days with caffeic acid phenethyl ester (5 or 20 mg/kg/day in 10% alcohol by oral gavage, or 40 mg/kg/day in 10% alcohol by intraperitoneal injection). As a control, a second group of mice were administered with 10% alcohol free of caffeic acid phenethyl ester. These two groups of mice then received four intraperitoneal injections of 1-methyl-4-phenyl-1,2,3,6-tetrahydropyridine (“MPTP”)-HCl (20 mg/kg of free base) in saline at 2 hour intervals in a single day, as described in Liberatore, et al., Nat Med, 1999, 5, 1403-1409. Seven days after the last administration of MPTP, the mice were anesthetized by halothane inhalation. […] They were then incubated with rabbit polyclonal anti-tyrosine hydroxylase (anti-TH) antibody (1:2,500, CALBIOCHEM, La Jolla, Calif.), goat biotinylated-conjugated polyclonal anti-rabbit antibody (1:250; Vector Laboratories, Burlingame, Calif.), horseradish-peroxidase conjugated avidin/biotin complex (VECTASTAIN ABC Reagent, Vector Laboratories), and successively exposed to diaminobenzidine for TH-immunohistochemistry analysis and stereological quantification of TH-positive neurons. […]

[4] = test system: striatal levels of dopamine, DOPAC and HVA; test: MPTP mouse model, striatal levels of dopamine and metabolites by HPLC; type: in vivo, mice; details: 40 mg/kg intraperitoneally, 48 hours after MPTP
Experimental: Caffeic acid phenethyl ester was evaluated for its efficacy in treating a neurodegenerative disorder in mice. Three groups of eight-week-old male C57B1/6 mice (Taconic Farms Inc., Germantown, N.Y.), 5-7 per group, were used. A group of mice were administered for 9 days with caffeic acid phenethyl ester (5 or 20 mg/kg/day in 10% alcohol by oral gavage, or 40 mg/kg/day in 10% alcohol by intraperitoneal injection). As a control, a second group of mice were administered with 10% alcohol free of caffeic acid phenethyl ester. These two groups of mice then received four intraperitoneal injections of 1-methyl-4-phenyl-1,2,3,6-tetrahydropyridine (“MPTP”)-HCl (20 mg/kg of free base) in saline at 2 hour intervals in a single day, as described in Liberatore, et al., Nat Med, 1999, 5, 1403-1409. The striatal levels of dopamine and its metabolites, dihydroxyphenylacetic acid (DOPAC) and homovanillic acid (HVA), were also determined by HPLC with electrochemical detector. See, e.g., Du, et al., Proc Natl Acad Sci, 2001, 98, 14669-14674.

[5] = test system: isolated working rabbit heart; test: Isolated working rabbit heart model of ischaemia; type: in vivo; details: 30 mg/kg intraperitoneal injection, p<0.05
Experimental: An isolated working rabbit heart model was use to define the cardioprotective effects (function, metabolic and ultrastructure) of caffeic acid phenethyl ester during ischaemia by the method described in Choong, et al., J Cardiovasc Surg (Torino), 1993 October, 34(5):423-433. More specifically, hearts (n=7 for each group) were arrested with and exposed to reinfusion (45 min) throughout the ischaemic period with a cold (4° C.) cardioplegic solution. […] The release of lactate dehydrogenase decreased during 40-minute ischaemic arrest (55.14+/-8.65 vs 19.33+/-7.4 IU/L perfusate for control and treatment, respectively; p<0.05). See […] et al., J Cardiovasc Pharmacol, 1999 October; 34(4):604-611.

O=C(/C=C/c1ccc(O)c(O)c1)OCCc1ccccc1 [caffeic acid phenethyl ester]
pIC50 [1]: ~6.00 | neuroprotective effect against 6-hydroxydopamine-induced neurotoxicity [2]: neuroprotective effect | number of TH-positive neurons in SNpc, as compared with saline-only mice ([3]; C57B1/6 mice, 5 or 20 mg/kg/day oral or 40 mg/kg/day i.p. for 9 days, then MPTP 4x20 mg/kg, 7 days after MPTP, MPTP control approximately 49%): up to 100% | effect of compound alone on number of TH-positive neurons ([3]; treatment alone for nine days, no MPTP): did not significantly alter | MPTP-induced reduction of striatal HVA level ([4]; MPTP control decreased by 35%): 16% | MPTP-induced reduction of striatal DOPAC level ([4]; MPTP control decreased by 46%): −2% | MPTP-induced reduction of striatal dopamine level ([4]; MPTP control decreased by 62%): 3% | postischaemic recovery of cardiac output ([5]; n=7, control 71.48+/−9.66%): 90.83+/−3.2% | release of lactate dehydrogenase during 40-minute ischaemic arrest ([5]; control 55.14+/−8.65): 19.33+/−7.4 IU/L perfusate
